In patent publication US8466176B2 (priority 2008, dated 2013) one finds log p and chromatographic logP data, which are given here for 68 molecules.

Usually chromatographic logP stands for a lipophilicity value derived from retention on a column. Higher therefore signals higher lipophilicity.

The nature of the first data set: logP by HPLC on reversed phase columns, method [a], pH 2.3 with 0.1% phosphoric acid and acetonitrile. In kind it is physicochemical. Particulars: method [a]: pH 2.3, 0.1% phosphoric acid and acetonitrile as eluent; EEC directive 79/831 Annex V.A8, reversed phase HPLC.
In the case of `Cn1nnnc1C(=NOCc1cccc(-c2ccc(OCc3ccccc3)cc2)n1)c1ccccc1` [Example 36], the log p is 4.89^[a].

`CCCCCC/C=C/c1nc(CON=C(c2ccccc2)c2nnnn2C)cs1` [Example 82]: the log p was 5.53^[a].

As to `CN(Cc1ccccc1)c1nc(CON=C(c2ccccc2)c2nnnn2C)cs1` [Example 48], the log p is 3.89^[a].

For `Cn1nnnc1C(=NOCc1cccc(C#CC(C)(C)C)n1)c1ccccc1` [Example 22], the log p is 4.19^[a].

Take `COCCCN(C)c1nc(CON=C(c2ccccc2)c2nnnn2C)cs1` [Example 46]: the log p was 2.59^[a].

As to `Cn1nnnc1C(=NOCc1cccc(C(F)(F)C(F)(F)C(F)(F)C(F)(F)C(F)(F)C(F)(F)C(F)(F)F)n1)c1ccccc1` [Example 73], the log p is 5.86^[a].

In the case of `CC(C)CCC#Cc1nc(CON=C(c2ccccc2)c2nnnn2C)cs1` [Example 65], the log p is 4.75^[a].

Regarding `Cn1nnnc1C(=NOCc1cccc(-c2cccc(C(F)(F)F)c2)n1)c1ccccc1` [Example 45], the log p was 4.56^[a].

Turning to `CC(C)CC#Cc1nc(CON=C(c2ccccc2)c2nnnn2C)cs1` [Example 61], the log p is 4.34^[a].

With `COc1cccc(/C=C/c2cccc(CON=C(c3ccccc3)c3nnnn3C)n2)c1` [Example 87], the log p was 4.14^[a].

As for `Cn1nnnc1C(=NOCc1cccc(C#CC[Si](C)(C)C)n1)c1ccccc1` [Example 26], the log p is 4.61^[a].

`CCCCCCN(C)c1nc(CON=C(c2ccccc2)c2nnnn2C)cs1` [Example 50]: the log p was 4.56^[a].

For the molecule `Cn1nnnc1C(=NOCc1cccc(C#CC2CCCC2)n1)c1ccccc1` [Example 29], the log p was 4.34^[a].

Consider `CCCC(C)C#Cc1nc(CON=C(c2ccccc2)c2nnnn2C)cs1` (centres unmarked) [Example 64], for which the log p was 4.78^[a].

`Cn1nnnc1C(=NOCc1cccc(/C=C/Cc2ccccc2)n1)c1ccccc1` [Example 94]: the log p was 4.31^[a].

For the molecule `CCCCCC/C=C/c1cccc(CON=C(c2ccccc2)c2nnnn2C)n1` [Example 92], the log p is 5.5^[a].

Consider `CCCCOc1ccc(-c2cccc(CON=C(c3ccccc3)c3nnnn3C)n2)cc1` [Example 39], for which the log p was 5.2^[a].

As to `Cn1nnnc1C(=NOCc1cccc(C#CC2CCCCC2)n1)c1ccccc1` [Example 30], the log p was 4.77^[a].

As to `Cn1nnnc1C(=NOCc1cccc(/C=C/c2cc(F)cc(F)c2)n1)c1ccccc1` [Example 95], the log p is 4.49^[a].

As to `CN(CCc1ccccc1)c1nc(CON=C(c2ccccc2)c2nnnn2C)cs1` [Example 37], the log p was 3.96^[a].

As to `Cn1nnnc1C(=NOCc1csc(/C=C/C2CCCCC2)n1)c1ccccc1` [Example 89], the log p was 5.14^[a].

As to `CCCC#Cc1cccc(CON=C(c2ccccc2)c2nnnn2C)n1` [Example 27], the log p was 3.83^[a].

Regarding `Cn1nnnc1C(=NOCc1cccc(-c2cc(Cl)cc(Cl)c2)n1)c1ccccc1` [Example 41], the log p was 5.23^[a].

Take `Cn1nnnc1C(=NOCc1cccc(-c2ccc(-c3ccccc3)cc2)n1)c1ccccc1` [Example 35]: the log p is 5.05^[a].

As to `COc1cccc(-c2cccc(CON=C(c3ccccc3)c3nnnn3C)n2)c1` [Example 33], the log p was 3.89^[a].

For `Cn1nnnc1C(=NOCc1cccc(-c2ccc(OC(F)(F)F)cc2)n1)c1ccccc1` [Example 40], the log p was 4.73^[a].

Consider `Cn1nnnc1C(=NOCc1csc(C#CC2CCCC2)n1)c1ccccc1` [Example 69], for which the log p is 4.49^[a].

With `Cn1nnnc1C(=NOCc1cccc(-c2cccc(Cl)c2)n1)c1ccccc1` [Example 47], the log p is 4.49^[a].

Turning to `Cn1nnnc1C(=NOCc1cccc(-c2ccc(C(F)(F)F)cc2)n1)c1ccccc1` [Example 34], the log p is 4.62^[a].

With `Cn1nnnc1C(=NOCc1cccc(/C=C/c2cccc(F)c2)n1)c1ccccc1` [Example 91], the log p was 4.29^[a].

Turning to `CCCCC#Cc1nc(CON=C(c2ccccc2)c2nnnn2C)cs1` [Example 72], the log p was 4.36^[a].

As for `Cn1nnnc1C(=NOCc1cccc(C#Cc2ccccc2)n1)c1ccccc1` [Example 25], the log p is 4.04^[a].

Consider `CCCCC/C=C/c1cccc(CON=C(c2ccccc2)c2nnnn2C)n1` [Example 90], for which the log p is 5^[a].

As to `Cn1nnnc1C(=NOCc1csc(N2CCCCC2)n1)c1ccccc1` [Example 49], the log p is 3.39^[a].

Consider `Cn1nnnc1C(=NOCc1csc(C#CCC2CCCC2)n1)c1ccccc1` [Example 66], for which the log p is 4.92^[a].

On to `CCc1ccc(-c2cccc(CON=C(c3ccccc3)c3nnnn3C)n2)cc1` [Example 38], for which the log p is 4.7^[a].

As to `CCCCCN(C)c1nc(CON=C(c2ccccc2)c2nnnn2C)cs1` [Example 51], the log p is 4.01^[a].

With `CC(C)[Si](C#Cc1cccc(CON=C(c2ccccc2)c2nnnn2C)n1)(C(C)C)C(C)C` [Example 28], the log p is 6.83^[a].

For the molecule `Cn1nnnc1C(=NOCc1csc(C#CCCCc2ccccc2)n1)c1ccccc1` [Example 62], the log p was 4.78^[a].

Consider `Cn1nnnc1C(=NOCc1csc(C#CC2CCCCC2)n1)c1ccccc1` [Example 68], for which the log p is 4.89^[a].

`Cn1nnnc1C(=NOCc1csc(C#Cc2ccccc2)n1)c1ccccc1` [Example 59]: the log p was 4.16^[a].

The next data set can be described thus: logP(HCOOH) reported with HPLC/MS. Particulars: HCOOH (formic acid), logP(HCOOH), HPLC/MS.
For the molecule `CSc1cccc(C(=NOCc2cccc(N(CCC3CCCCC3)C(=O)OC(C)(C)C)n2)c2nnnn2C)c1` [tert-butyl (2-cyclohexylethyl)(6-{[({[3-(methylsulfanyl)phenyl](1-methyl-1H-tetrazol-5-yl)methylene}-amino)oxy]methyl}pyridin-2-yl)carbamate], the chromatographic logP was 6.83.

Molecule `CSc1cccc(C(=O)c2nnnn2C)c1` [[3-(methylsulfanyl)phenyl](1-methyl-1H-tetrazol-5-yl)methanone] displayed a chromatographic logP of 2.52.

Still in this data set, the particulars now being: logP(HCOOH), HPLC/MS.
As for `Fc1ccc(Br)nc1CBr` [6-bromo-2-(bromomethyl)-3-fluoropyridine], the chromatographic logP stood at 2.58.

Regarding `Cc1cccc(NC=O)n1` [N-(6-methylpyridin-2-yl)formamide], the chromatographic logP was determined as 0.45.

Consider `CSc1cccc(C(=NOCc2cccc(N3C(=O)c4ccccc4C3=O)n2)c2nnnn2C)c1` [2-(6-{[({[3-(methylsulfanyl)phenyl](1-methyl-1H-tetrazol-5-yl)methylene}amino)oxy]methyl}pyridin-2-yl)-1H-isoindole-1,3(2H)-dione], for which the chromatographic logP turned out to be 3.39.

The same data set, now with this note: method [a]: HPLC on reversed phase columns, pH 2.3 with 0.1% phosphoric acid and acetonitrile as eluent.
Turning to `Cn1nnnc1C(=NOCc1csc(C#C[Si](C)(C)C)n1)c1ccccc1` [Example 138], the log p was 4.59^[a].

`COC=CC#Cc1nc(CON=C(c2ccccc2)c2nnnn2C)cs1` [Example 136]: the log p was 3.06^[a].

In the case of `CCOCCOCCNc1cccc(CON=C(c2ccccc2)c2nnnn2C)n1` [Example 197], the log p is 1.7^[a].

Staying with this data set, now noted: method [b]: LC-MS at pH 2.7, 0.1% formic acid in water and acetonitrile, linear gradient 10% to 95% acetonitrile.
In the case of `Cc1nnnn1C(=NOCc1cccc(NC(=S)NCc2ccccc2)n1)c1ccccc1` [Example 10], the log p was 3.52^[b].

`Cn1nnnc1C(=NOCc1nc(C#CCC2CCCCC2)ccc1F)c1ccccc1` [Example 97]: the log p was 5.28^[b].

Consider `CCCCC#Cc1nc(CON=C(c2ccccc2)c2nnnn2C)c(Cl)s1` [Example 117], for which the log p was 5.22^[b].

As for `Cc1nnnn1C(=NOCc1cccc(C(=O)O)n1)c1ccccc1` [Example 15], the log p is 1.97^[b].

Turning to `Cn1nnnc1C(=NOCc1ncc(C(F)(F)F)cc1Cl)c1ccccc1` [Example 43], the log p was 3.76^[b].

The same data set, now with this note: method [b]: LC-MS at pH 2.7 with 0.1% formic acid in water and acetonitrile (0.1% formic acid), linear gradient 10% to 95% acetonitrile.
For the molecule `CSc1cccc(C(=NOCc2csc(C#CC3CCCCC3)n2)c2nnnn2C)c1` [Example 304], the log p was 5.29^[b].

In the case of `CSc1cccc(C(=NOCc2csc(C#CC3CC3)n2)c2nnnn2C)c1` [Example 303], the log p is 3.99^[b].

For the molecule `Cn1nnnc1C(=NOCc1cccc(NCCC2CCCCC2)n1)c1cccc(F)c1` [Example 291], the log p is 3.27^[b].

In the case of `CCOc1ccc(C#Cc2nc(CON=C(c3cccc(F)c3)c3nnnn3C)cs2)cc1` [Example 294], the log p is 4.62^[b].

The data set is the same for the next values; noted with them: method [b]: LC-MS, pH 2.7 with 0.1% formic acid in water and acetonitrile (0.1% formic acid), linear gradient 10% to 95% acetonitrile.
Take `CCC(=O)OCC#Cc1cccc(CON=C(c2ccccc2)c2nnnn2C)n1` [Example 254]: the log p is 3.29^[b].

In the case of `Cn1nnnc1C(=NOCc1cccc(C#Cc2ccccc2Cl)n1)c1ccccc1` [Example 215], the log p is 4.36^[b].

`CC(C)c1ccc(C#Cc2nc(CON=C(c3ccccc3)c3nnnn3C)cs2)cc1` [Example 257]: the log p was 5.29^[b].

As for `Cc1nnnn1C(=NOCc1csc(C#CCC2CCCC2)n1)c1ccccc1` [Example 170], the log p was 4.97^[b].

Turning to `CCc1ccc(C#Cc2nc(CON=C(c3ccccc3)c3nnnn3C)ccc2OC)cc1` [Example 134], the log p was 4.56^[b].

In the case of `Cn1nnnc1C(=NOCc1cccc(C#CCc2ccccc2)n1)c1ccccc1` [Example 238], the log p is 4.09^[b].

Turning to `CCCCCC#Cc1nc(CON=C(c2cccc(F)c2)c2nnnn2C)cs1` [Example 152], the log p was 4.94^[b].

Consider `Cn1nnnc1C(=NOCc1csc(NCC2CC2)n1)c1ccccc1` [Example 162], for which the log p is 2.26^[b].

Take `Cn1nnnc1C(=NOCc1csc(C#Cc2cccc(OC(F)(F)F)c2)n1)c1ccccc1` [Example 265]: the log p was 4.81^[b].

Still in this data set, the particulars now being: method [c]: LC-MS, pH 7.8 with 0.001 molar ammonium hydrogen carbonate solution in water, linear gradient 10% to 95% acetonitrile.
Regarding `CCCCC1COC(c2cccc(CON=C(c3ccccc3)c3nnnn3C)n2)O1` (centres unmarked) [Example 172], the log p was 4.34^[c].
